From paper PMC7177833, “2-Aminopyridine Analogs Inhibit Both Enzymes of the Glyoxylate Shunt in Pseudomonas aeruginosa” (International Journal of Molecular Sciences, 2020)
Several values for one entry are separate records, joined by “and”; a condition that tells them apart may be missing. Identical values can stand only once. Like-named read-outs stand apart in the source and are kept apart here.

Experiments:
[1] = CytoTox 96 LDH release cytotoxicity assay, U937; assay type: cell-based, human; conditions: human; U937 cells, LDH release
Experimental: (§1) The CytoTox 96® nonradioactive cytotoxicity assay (Promega, Madison, WI, USA) was performed to determine the number of cells affected by necrosis measuring LDH release. A U937 cell suspension (5 × 10^5 cells/mL) was prepared, and 99.5 µL of this suspension were added to the wells of clear, sterile, 96-well, U-bottomed plates (Greiner, Dungannon, UK). The test compounds (0.5 µL of a 200 × concentrated stock) or 0.5% DMSO (control) were added to each well, and the plates were shaken for 1 min at 100 rpm, followed by 3.5 h at 37 °C with 5% CO2. At this point, CytoTox 96® 10× lysis solution was added to the wells reserved for total lysis. These samples represented the LDH released following complete cell lysis. After 30 min, 50 µL of supernatant from each test well and total lysis well was transferred to new 96-well plates (Thermo Fisher Scientific, Bishop’s Stortford, UK). Prethawed CytoTox 96® buffer was mixed with the CytoTox 96® substrate, and 50 µL were added into each well. The plates were incubated for 10 min in darkness at 25 °C. CytoTox 96® stop buffer (50 µL) was added, and the plates were incubated for a further 15 min. LDH release was quantified by measuring A492 nm in a CLARIOstar® multimode microplate reader (BMG Labtech, Aylesbury, UK).

U937 cells = assay: CytoTox 96 LDH release cytotoxicity assay, U937; assay type: cell-based, human; conditions: IC50 cytotoxicity/IC50 P. aeruginosa growth inhibition in M9 acetate
Experimental: as §1

P. aeruginosa = test system: P. aeruginosa; set-up: method as in Fahnoe et al. [13]; conditions: ref Fahnoe et al. [13], cited from earlier work
ICLPa [2] = molecular target: T1, ICLPa (Pseudomonas aeruginosa, UniProt Q9I0K4); assay: Kinetic mode of action on ICLPa; assay type: biochemical; set-up: made in house; conditions: isocitrate titrated; uncompetitive model, GraphPad Prism
T1 sequence (Q9I0K4 1-531): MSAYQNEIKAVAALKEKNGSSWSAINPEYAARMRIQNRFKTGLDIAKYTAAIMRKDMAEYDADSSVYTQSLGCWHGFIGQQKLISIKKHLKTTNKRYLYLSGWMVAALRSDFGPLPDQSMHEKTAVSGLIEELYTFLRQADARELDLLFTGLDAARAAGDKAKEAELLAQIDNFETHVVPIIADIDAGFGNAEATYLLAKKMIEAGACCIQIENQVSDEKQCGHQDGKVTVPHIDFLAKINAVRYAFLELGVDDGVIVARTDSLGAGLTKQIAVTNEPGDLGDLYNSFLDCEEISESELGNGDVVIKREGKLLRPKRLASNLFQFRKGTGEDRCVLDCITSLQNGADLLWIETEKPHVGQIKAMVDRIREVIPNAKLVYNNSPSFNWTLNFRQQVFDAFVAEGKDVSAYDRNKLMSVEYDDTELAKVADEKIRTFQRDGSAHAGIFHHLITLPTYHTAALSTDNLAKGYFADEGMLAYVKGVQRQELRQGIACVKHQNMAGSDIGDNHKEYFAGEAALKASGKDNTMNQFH
Experimental: The enzymatic activity of purified ICLPa and MSPa was assayed essentially as previously described. Compounds were added to the reaction mixtures (minus substrates) and incubated for 5 min at 37 °C. The enzyme concentration in the reaction mixtures was 170 nM for ICL and 25 nM for MS (based on the concentration of the monomer in each case). […] The reactions were initiated by the addition of pH-adjusted substrates, and the initial rates were recorded as A324 nm (for ICLPa) and A412 nm (for MSPa) using a Biospectrometer (Eppendorf, Stevenage, UK). Substrate turnover was calculated from the molar extinction coefficient of the assay products: Glyoxylate-phenylhydrazone (16,800/M/cm) for ICLPa and 2-nitro-5-thiobenzoic acid (14,150/M/cm) for MSPa.
The mode of action of SB002 on MSPa and ICLPa was determined by titrating the respective substrates of each enzyme in the presence of three fixed concentrations of SB002 (selected to lie around the measured IC50 value) and measuring the reaction rates as outlined in Section 4.3. Double-reciprocal plots and best-fit inhibition models (GraphPad Prism v. 7.04) were used to assess the mode of inhibition. Inhibition constants were calculated using GraphPad Prism v. 7.04 (GraphPad Software, Inc., La Jolla, CA, USA). Each data point represents the mean ± SD for three independent replicates.

MSPa = MSPa (Pseudomonas aeruginosa, UniProt Q9I636); assay: Isothermal titration calorimetry, MSPa
Experimental: (§2) Protein samples were dialyzed (2 × 1 L) in a D-tube dialyzer (Merck, Watford, UK) for 3 h in 25 mM Tris-HCl, 100 mM NaCl, and 0.1 mM TCEP (pH 7.5). […] The syringe and the cell both contained a final concentration of 0.1% DMSO. The injection parameters for MSPa were: Reference power 15 µcal/sec, initial injection of 3 µL (3.6 sec per injection) with subsequent injections of 10 µL (12 sec per injection). Injections were spaced by 150 sec with a filter period of 2 sec. The injection parameters for ICLPa were: Reference power 15 µcal/sec, initial injection of 3 µL (3.6 sec per injection) with subsequent injections of 8 µL (10 sec per injection). Injections were spaced by 170 sec with a filter period of 2 sec. Data were analyzed in NITPIC (NITPIC, Bethesda, MD, USA) [31] for baseline calculations and then fit for thermodynamic parameters using the OneSite model in Origin 7.0 software (Origin Software Solutions, Bristol, UK). Each titration was carried out in duplicate.

ICLPa [3] = molecular target: T1, ICLPa; assay: Isothermal titration calorimetry, ICLPa; conditions: ITC
Experimental: as §2

[4] = ITC, 25 °C, reverse titration, MSPa
[5] = 25 °C, reverse titration, ICLPa

MSPa, sequence (Q9I636 whole entry): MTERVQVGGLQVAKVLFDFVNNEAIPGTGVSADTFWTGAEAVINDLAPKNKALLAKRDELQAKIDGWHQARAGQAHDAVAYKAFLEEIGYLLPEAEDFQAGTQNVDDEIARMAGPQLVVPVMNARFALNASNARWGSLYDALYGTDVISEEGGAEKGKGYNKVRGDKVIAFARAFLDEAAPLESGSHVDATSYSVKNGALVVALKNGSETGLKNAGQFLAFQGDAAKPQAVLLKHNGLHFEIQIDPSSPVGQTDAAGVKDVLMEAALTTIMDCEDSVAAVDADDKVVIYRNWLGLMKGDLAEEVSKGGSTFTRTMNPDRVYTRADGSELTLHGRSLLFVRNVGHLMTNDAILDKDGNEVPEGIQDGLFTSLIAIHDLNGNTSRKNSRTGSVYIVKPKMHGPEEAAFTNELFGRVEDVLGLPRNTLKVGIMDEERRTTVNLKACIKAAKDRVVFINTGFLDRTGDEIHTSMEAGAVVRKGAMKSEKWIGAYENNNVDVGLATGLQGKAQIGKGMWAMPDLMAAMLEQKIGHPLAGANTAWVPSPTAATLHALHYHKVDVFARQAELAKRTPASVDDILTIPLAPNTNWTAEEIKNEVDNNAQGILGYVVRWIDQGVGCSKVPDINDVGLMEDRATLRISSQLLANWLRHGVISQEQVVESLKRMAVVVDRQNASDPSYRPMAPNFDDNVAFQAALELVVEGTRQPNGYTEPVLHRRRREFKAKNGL

Compound	IC50 at 3.5 h [1] [µM]	Therapeutic index U937 (U937 cells)	MIC (P. aeruginosa; conversion of 8 μg/mL) [µM]	MIC (P. aeruginosa) [µg/mL]	Ki’ (inhibition constant for binding to the enzyme-substrate complex), ICLPa (ICLPa [2]) [µM]	Kd (MSPa) [µM]	Ka (MSPa; [4]) [M]	ΔG (MSPa; [4])	ΔH (MSPa; [4])	−TΔS (MSPa; [4]) [kcal/mol]	n (binding sites) (MSPa; ITC, per monomeric unit of MSPa)	Ka (ICLPa [3]; [5]) [M]	Kd (ICLPa [3]; [5]) [µM]	ΔG (ICLPa [3]; [5])	ΔH (ICLPa [3]; [5])	−TΔS (ICLPa [3]; [5]) [kcal/mol]	n (binding sites) (ICLPa [3]; per monomeric unit of ICLPa)
CC(C)(C)OC(=O)/N=C(\NC(=O)OC(C)(C)C)Nc1cc(Cl)ccn1 [SB002]	18.2	17 and 17.31	21.6	8	21.3	0.0286 ± 0.0016	3.56e+07 ± 1.86e+06	−10.31 ± 1.79×10^−3 kcal/mol	−0.47 ± 1.79×10^−3 kcal/mol	-9.84	0.35 and 0.35 ± 8.41 × 10^−4	718000 ± 149000	1.43	−7.98 ± 3.44×10^−1 kcal/mol	−4.22 ± 3.44×10^−1 kcal/mol	-3.76	0.53 and 0.53 ± 3.25 × 10^−2
CC(C)(C)OC(=O)/N=C(\NC(=O)OC(C)(C)C)Nc1cc(C#N)ccn1 [SB023]	3220	364 and 364.37	–	–	–	–	–	–	–	–	–	–	–	–	–	–	–
